Laboratory results: PubChem BioAssay (NCI)
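Cells were grown in 96-well plates and exposed to each compound for 48 hours at five concentrations; endpoints were interpolated linearly between bracketing concentrations, or set to the highest concentration if not reached. Abbreviation: GI50, concentration required for 50% inhibition of growth. TGI denotes the concentration required for complete inhibition of growth.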

Assays:
Experiment in all cases: DTP human tumour cell line panel, 48 h
786-0 renal = tested on: 786-0 renal
A498 renal = tested on: A498 renal
A549 NSCLC = tested on: A549 NSCLC
ACHN renal = tested on: ACHN renal
BT-549 breast = tested on: BT-549 breast
CAKI-1 renal = tested on: CAKI-1 renal
CCRF-CEM leukemia = tested on: CCRF-CEM leukemia
COLO 205 colon = tested on: COLO 205 colon
DU-145 prostate = tested on: DU-145 prostate
EKVX NSCLC = tested on: EKVX NSCLC
HCC-2998 colon = tested on: HCC-2998 colon
HCT-116 colon = tested on: HCT-116 colon
HCT-15 colon = tested on: HCT-15 colon
HL-60(TB) leukemia = tested on: HL-60(TB) leukemia
HOP-62 NSCLC = tested on: HOP-62 NSCLC
HOP-92 NSCLC = tested on: HOP-92 NSCLC
HS 578T breast = tested on: HS 578T breast
HT29 colon = tested on: HT29 colon
IGROV1 ovarian = tested on: IGROV1 ovarian
K-562 leukemia = tested on: K-562 leukemia
KM12 colon = tested on: KM12 colon
LOX IMVI melanoma = tested on: LOX IMVI melanoma
M14 melanoma = tested on: M14 melanoma
MALME-3M melanoma = tested on: MALME-3M melanoma
MCF7 breast = tested on: MCF7 breast
MDA-MB-231 breast = tested on: MDA-MB-231 breast
MDA-MB-435 = tested on: MDA-MB-435
MDA-MB-468 breast = tested on: MDA-MB-468 breast
MOLT-4 leukemia = tested on: MOLT-4 leukemia
NCI-H226 lung = tested on: NCI-H226 lung
NCI-H23 lung = tested on: NCI-H23 lung
NCI-H460 lung = tested on: NCI-H460 lung
NCI-H522 lung = tested on: NCI-H522 lung
NCI/ADR-RES ovarian = tested on: NCI/ADR-RES ovarian
OVCAR-3 ovarian = tested on: OVCAR-3 ovarian
OVCAR-4 ovarian = tested on: OVCAR-4 ovarian
OVCAR-5 ovarian = tested on: OVCAR-5 ovarian
OVCAR-8 ovarian = tested on: OVCAR-8 ovarian
PC-3 prostate = tested on: PC-3 prostate
RPMI-8226 leukemia = tested on: RPMI-8226 leukemia
RXF 393 renal = tested on: RXF 393 renal
SF-268 CNS = tested on: SF-268 CNS
SF-295 CNS = tested on: SF-295 CNS
SF-539 CNS = tested on: SF-539 CNS
SK-MEL-2 melanoma = tested on: SK-MEL-2 melanoma
SK-MEL-28 melanoma = tested on: SK-MEL-28 melanoma
SK-MEL-5 melanoma = tested on: SK-MEL-5 melanoma
SK-OV-3 ovarian = tested on: SK-OV-3 ovarian
SN12C renal = tested on: SN12C renal
SNB-19 CNS = tested on: SNB-19 CNS
SNB-75 CNS = tested on: SNB-75 CNS
SR leukemia = tested on: SR leukemia
SW-620 colon = tested on: SW-620 colon
T-47D breast = tested on: T-47D breast
TK-10 renal = tested on: TK-10 renal
U251 CNS = tested on: U251 CNS
UACC-257 melanoma = tested on: UACC-257 melanoma
UACC-62 melanoma = tested on: UACC-62 melanoma
UO-31 renal = tested on: UO-31 renal

## CCc1ccccc1NC(=O)N/C(N)=N/c1nc2ccccc2s1
786-0 renal
  GI50: 89.8 nM
  TGI: 5140 nM
A498 renal
  GI50: 16400 nM
  TGI: 45600 nM
A549 NSCLC
  GI50: 64 nM
  TGI: > 38800 nM
ACHN renal
  GI50: 79.3 nM
  TGI: 6210 nM
BT-549 breast
  GI50: 91 nM
  TGI: 1790 nM
CAKI-1 renal
  GI50: 63.1 nM
  TGI: 7200 nM
CCRF-CEM leukemia
  GI50: 38.2 nM
  TGI: 13500 nM
COLO 205 colon
  GI50: 29.4 nM
  TGI: 94 nM
DU-145 prostate
  GI50: 48.3 nM
  TGI: 2500 nM
EKVX NSCLC
  GI50: 50.3 nM
  TGI: 16100 nM
HCC-2998 colon
  GI50: 29.1 nM
  TGI: 3050 nM
HCT-116 colon
  GI50: 37.7 nM
  TGI: 1470 nM
HCT-15 colon
  GI50: 29.3 nM
  TGI: 7030 nM
HL-60(TB) leukemia
  GI50: 33.4 nM
  TGI: 6310 nM
HOP-62 NSCLC
  GI50: 69.6 nM
  TGI: 4550 nM
HOP-92 NSCLC
  GI50: 3090 nM
  TGI: 29600 nM
HS 578T breast
  GI50: 28.1 nM
  TGI: 7270 nM
HT29 colon
  GI50: 31.6 nM
  TGI: 135 nM
IGROV1 ovarian
  GI50: 56.7 nM
  TGI: 15200 nM
K-562 leukemia
  GI50: 23.3 nM
  TGI: 14400 nM
KM12 colon
  GI50: 38.1 nM
  TGI: 11100 nM
LOX IMVI melanoma
  GI50: 43.1 nM
  TGI: 4620 nM
M14 melanoma
  GI50: 28.6 nM
  TGI: 911 nM
MALME-3M melanoma
  GI50: 62.2 nM
  TGI: 11300 nM
MCF7 breast
  GI50: 32.9 nM
  TGI: 12300 nM
MDA-MB-231 breast
  GI50: 40.5 nM
  TGI: 598 nM
MDA-MB-435
  GI50: < 14.6 nM
  TGI: 38.9 nM
MDA-MB-468 breast
  GI50: 23.3 nM
  TGI: 62.5 nM
MOLT-4 leukemia
  GI50: 62.8 nM
  TGI: 18700 nM
NCI-H226 lung
  GI50: 144 nM
  TGI: 1520 nM
NCI-H23 lung
  GI50: 45.4 nM
  TGI: 5480 nM
NCI-H460 lung
  GI50: 35.4 nM
  TGI: 3820 nM
NCI-H522 lung
  GI50: < 16.7 nM
  TGI: 90 nM
NCI/ADR-RES ovarian
  GI50: 24.4 nM
  TGI: 64.3 nM
OVCAR-3 ovarian
  GI50: 39.6 nM
  TGI: 1550 nM
OVCAR-4 ovarian
  GI50: 1670 nM
  TGI: 24700 nM
OVCAR-5 ovarian
  GI50: 53.3 nM
  TGI: 12000 nM
OVCAR-8 ovarian
  GI50: 37 nM
  TGI: 3520 nM
PC-3 prostate
  GI50: 52.8 nM
  TGI: 18800 nM
RPMI-8226 leukemia
  GI50: 44.5 nM
  TGI: 21100 nM
RXF 393 renal
  GI50: 22.5 nM
  TGI: 7530 nM
SF-268 CNS
  GI50: 336 nM
  TGI: > 100000 nM
SF-295 CNS
  GI50: 23.4 nM
  TGI: 2040 nM
SF-539 CNS
  GI50: 21.1 nM
  TGI: 64.2 nM
SK-MEL-2 melanoma
  GI50: 33.8 nM
  TGI: 10800 nM
SK-MEL-28 melanoma
  GI50: 2830 nM
  TGI: 21300 nM
SK-MEL-5 melanoma
  GI50: 31.1 nM
  TGI: 116 nM
SK-OV-3 ovarian
  GI50: 150 nM
  TGI: 33600 nM
SN12C renal
  GI50: 43.8 nM
  TGI: 6910 nM
SNB-19 CNS
  GI50: 51.7 nM
  TGI: 14600 nM
SNB-75 CNS
  GI50: < 18 nM
  TGI: 4640 nM
SR leukemia
  GI50: 120 nM
  TGI: 21600 nM
SW-620 colon
  GI50: 42.2 nM
  TGI: 15700 nM
T-47D breast
  GI50: 15100 nM
  TGI: > 100000 nM
TK-10 renal
  GI50: 4490 nM
  TGI: 50000 nM
U251 CNS
  GI50: 37 nM
  TGI: 5640 nM
UACC-257 melanoma
  GI50: 4670 nM
  TGI: > 54400 nM
UACC-62 melanoma
  GI50: 38.3 nM
  TGI: 22700 nM
UO-31 renal
  GI50: 97.9 nM
  TGI: 34600 nM
